Assay results from patent publication US8716242B2, “β-hairpin peptidomimetics” (priority 2009, dated 2014).
Numbered stars: 1 amine (or outer) side, 2 acyl side, 3 side chain; on linkers, the order of the positions; unused ones are H or OH. Bridge positions count the residues as written; N and C are the ends. Square brackets hold non-standard residues; d marks the D form. Side chains are listed from the residue outwards. Peptide text beside a SMILES is read from it. * marks the point of attachment. γGlu = O=C(O)[C@H](CCC(=O)[*:2])N[*:1]; Palmitoyl = CCCCCCCCCCCCCCCC(=O)*; Myristoyl = CCCCCCCCCCCCCC(=O)*; Dab = NCC[C@H](N)C(=O)O

Key:
[1] = system: human red blood cells (hRBC); experiment: Hemolysis of human red blood cells; assay type: cell-based; settings: 20% hRBC, 1 h, 37° C.
How it was run: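 Washed fresh human erythrocytes (20% v/v, ~0.9×10^9 cells/mL final) incubated with compound at 100 μM for 1 h at 37 °C with shaking. Supernatant OD540 read; % hemolysis expressed relative to 2.5% Triton X-100 lysis (100%), with PBS/0.001% acetic acid as 0%.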

[2] = in vivo; design: species or system male CD-1 mice; settings: for bioavailability / AUC(0-inf) / Cmax / Tmax / half-life / level at 0.083 h / level at 0.25 h / level at 0.5 h / level at 1 h / level at 2 h / level at 4 h / level at 8 h / level at 12 h / level at 24 h: male, CD-1, mouse; for AUC0-∞ dcor. / Cmax dcor.: mouse
Experimental: 2.7. Pharmacokinetic Study (PK)
Pharmacokinetic study after intravenous (i.v.) and subcutaneous (s.c.) administration was performed for the compounds of Ex. 17, Ex. 20, Ex. 25, Ex. 26, Ex. 28, and Ex. 29. […] The compounds of Ex. 17, Ex. 25, Ex. 26, Ex. 28, and Ex. 29 were administered i.v. and s.c. as a cassette whereas for the compound of Ex. 20a single i.v. and s.c. administration was accomplished.
30 grams (±20%) male CD-1 mice obtained from Janvier, France, were used in the study testing the cassette compounds. The vehicle, phosphate buffered saline containing 5% DMSO, was added to give a final concentration of 0.5 mg/mL of the compounds (i.v. route and s.c. route). The volume was 2 mL/kg i.v. and 10 mL/kg s.c. and the cassette compounds were injected to give a final intravenous dose of 1 mg/kg and an subcutaneous dose of 5 mg/kg. Approximately 500 μL of blood were removed from the opened heart at predetermined time intervals (5, 15, 30 min and 1, 2, 4, 8 and 12 hours for the i.v. study and 5, 15, 30 min and 1, 2, 4, 8, 12 and 24 hours for the s.c. study) and added to heparinized tubes. Plasma was removed from pelleted cells upon centrifugation and frozen at −80° C. prior to HPLC-MS analysis. For the compound of Ex. 20 30 grams (±20%) male CD-1 mice obtained from Charles River Laboratories Deutschland GmbH were used. The vehicle, phosphate buffered saline, was added to give a final concentration of 0.2 mg/mL of the compound (i.v. route) and 1 mg/mL (s.c. route). The volume was 5 mL/kg i.v. and s.c. and the compound was injected to give a final intravenous dose of 1 mg/kg and an subcutaneous dose of 5 mg/kg. Approximately 300-400 μL of blood was removed under light isoflurane anesthesia by cardiac puncture at predetermined time intervals (5, 15, 30 min and 1, 2, 3, 4, 6, 12 hours for the i.v. study and 15, min and 1, 2, 4, 6, 8, 12 and 24 hours for the s.c. study) and added to heparinized tubes. Plasma was removed from pelleted cells upon centrifugation and frozen at −80° C. prior to HPLC-MS analysis.
Preparation of the Plasma Calibration Samples
“Blank” mouse plasma from untreated animals was used. Aliquots of plasma of 0.2 mL each were spiked with 50 ng of propranolol (Internal Standard, IS), (sample preparation by solid phase extraction on OASIS® HLB cartridges [Waters]) and with known amounts of Ex. 20 in order to obtain 9 plasma calibration samples in the range 10-5000 nM. The OASIS® HLB cartridges were conditioned with 1 mL of methanol and then with 1 mL of 1% NH3 in water. Samples were then diluted with 700 μL of 1% NH3 in water and loaded. The plate was washed with 1 mL of methanol/1% NH3 in water 5/95 (v/v). Elution was performed using 1 mL of 0.1% TFA in methanol.
The plate containing eluates was introduced into the concentrator system and taken to dryness. The residues were dissolved in 100 μL of formic acid 0.1%/acetonitrile, 95/5 (v/v) and analysed in the HPLC/MS on a reverse phase analytical column (Jupiter C18, 50×2.0 mm, 5 μm, Phenomenex), using gradient elution (mobile phases A: 0.1% formic acid in water, B: acetonitrile; from 5% B to 100% B in 2 min.).
Preparation of Plasma Samples
Samples coming from animal treatments were pooled in order to obtain an appropriate volume for the extraction. If the total volume obtained was less than 0.2 mL the appropriate amount of “blank” mouse plasma was added in order to keep the matrix identical to the calibration curve. Samples were than spiked with IS and processed as described for the calibration curve.
Pharmacokinetic Evaluation
In order to perform PK analysis pooled plasma data (n=3 mice) was used. PK parameters were calculated by WinNonLin™ software version 5.2.1 (Pharsight—A Certara™ Company, Mountain View, Calif. 94041 USA) using non-compartmental analysis with a linear up/log down trapezoidal calculation method. For the terminal elimination phase at least 3 time points and a correlation coefficient greater than 0.85 was used. […]

Row | Structure (SMILES) | Hemolysis at 100 μM [1] | bioavailability [2] | AUC(0-inf) ([2]; iv, 1 mg/kg) | Cmax ([2]; iv, 1 mg/kg) | Tmax ([2]; iv, 1 mg/kg) | half-life ([2]; iv, 1 mg/kg) | level at 0.083 h ([2]; iv, 1 mg/kg) | level at 0.25 h ([2]; iv, 1 mg/kg) | level at 0.5 h ([2]; iv, 1 mg/kg) | level at 1 h ([2]; iv, 1 mg/kg) | level at 2 h ([2]; iv, 1 mg/kg) | level at 4 h ([2]; iv, 1 mg/kg) | level at 8 h ([2]; iv, 1 mg/kg) | level at 12 h ([2]; iv, 1 mg/kg) | AUC(0-inf) ([2]; sc, 5 mg/kg) | Cmax ([2]; sc, 5 mg/kg) | Tmax ([2]; sc, 5 mg/kg) | half-life ([2]; sc, 5 mg/kg) | level at 0.25 h ([2]; sc, 5 mg/kg) | level at 0.5 h ([2]; sc, 5 mg/kg) | further results
1 | CCCCCCCCCCCCCC(=O)N[C@@H](CCC(=O)NCCCC[C@@H]1NC(=O)[C@H](Cc2ccc(O)cc2)NC(=O)[C@@H]2CSSC[C@H](NC(=O)[C@H](Cc3ccc(O)cc3)NC(=O)[C@H](Cc3c[nH]cn3)NC(=O)[C@H](Cc3ccc(O)cc3)NC(=O)[C@@H]3CCCN3C(=O)[C@H]3CCCN3C(=O)[C@H](CCCCN)NC1=O)C(=O)N[C@@H](CO)C(=O)N[C@@H](C)C(=O)N1CCC[C@@H]1C(=O)N[C@@H](CCN)C(=O)N[C@@H](CCCNC(=N)N)C(=O)N[C@@H](Cc1ccc(O)cc1)C(=O)N2)C(=O)O [Ex. 28] (cyclo(YHYCSA[dP][Dab]RYCYK([γGlu-Myristoyl])K[dP]P); disulfide 4-11) | 1.9% | 150% | 3430 ng·h/mL | 2820 ng/mL | 0.1 h | 3.2 h | 2820 ng/mL | 2120 ng/mL | 2030 ng/mL | 1670 ng/mL | 114 ng/mL | 148 ng/mL | 34 ng/mL | 17 ng/mL | 25700 ng·h/mL | 1900 ng/mL | 8 h | 4.3 h | 16 ng/mL | 73 ng/mL | level at 1 h ([2]; sc, 5 mg/kg): 232 ng/mL; level at 2 h ([2]; sc, 5 mg/kg): 1520 ng/mL; level at 4 h ([2]; sc, 5 mg/kg): 1270 ng/mL; level at 8 h ([2]; sc, 5 mg/kg): 1900 ng/mL; level at 12 h ([2]; sc, 5 mg/kg): 1610 ng/mL; level at 24 h ([2]; sc, 5 mg/kg): 164 ng/mL; AUC0-∞ dcor. ([2]; iv, 1 mg/kg): 3430.8 kg·ng·h/mg/mL; Cmax dcor. ([2]; iv, 1 mg/kg): 2817.0 kg·ng/mg/mL; AUC0-∞ dcor. ([2]; sc, 5 mg/kg): 5137.4 kg·ng·h/mg/mL; Cmax dcor. ([2]; sc, 5 mg/kg): 380.0 kg·ng/mg/mL
2 | CCCCCCCCCCCCCCCC(=O)N[C@@H](CCC(=O)NCCCC[C@@H]1NC(=O)[C@H](Cc2ccc(O)cc2)NC(=O)[C@@H]2CSSC[C@H](NC(=O)[C@H](Cc3ccc(O)cc3)NC(=O)[C@H](Cc3c[nH]cn3)NC(=O)[C@H](Cc3ccc(O)cc3)NC(=O)[C@@H]3CCCN3C(=O)[C@H]3CCCN3C(=O)[C@H](CCCCN)NC1=O)C(=O)N[C@@H](CO)C(=O)N[C@@H](C)C(=O)N1CCC[C@@H]1C(=O)N[C@@H](CCN)C(=O)N[C@@H](CCCNC(=N)N)C(=O)N[C@@H](Cc1ccc(O)cc1)C(=O)N2)C(=O)O [Ex. 29] (cyclo(YHYCSA[dP][Dab]RYCYK([γGlu-Palmitoyl])K[dP]P); disulfide 4-11) | 5.4% | 151% | 2940 ng·h/mL | 2320 ng/mL | 0.1 h | 3.6 h | 2320 ng/mL | 1820 ng/mL | 1730 ng/mL | 1500 ng/mL | 87 ng/mL | 114 ng/mL | 35 ng/mL | 16 ng/mL | 22200 ng·h/mL | 1600 ng/mL | 8 h | 4.7 h | 9 ng/mL | 41 ng/mL | level at 1 h ([2]; sc, 5 mg/kg): 137 ng/mL; level at 2 h ([2]; sc, 5 mg/kg): 1050 ng/mL; level at 4 h ([2]; sc, 5 mg/kg): 958 ng/mL; level at 8 h ([2]; sc, 5 mg/kg): 1600 ng/mL; level at 12 h ([2]; sc, 5 mg/kg): 1430 ng/mL; level at 24 h ([2]; sc, 5 mg/kg): 175 ng/mL; AUC0-∞ dcor. ([2]; iv, 1 mg/kg): 2945.0 kg·ng·h/mg/mL; Cmax dcor. ([2]; iv, 1 mg/kg): 2317.0 kg·ng/mg/mL; AUC0-∞ dcor. ([2]; sc, 5 mg/kg): 4436.2 kg·ng·h/mg/mL; Cmax dcor. ([2]; sc, 5 mg/kg): 320.6 kg·ng/mg/mL
